Biological target: BRD4 in HeLa cells (Homo sapiens, UniProt O60885)
Assay: Western blot analysis of BRD4 degradation
Assay type: cell-based
Settings: HeLa cells treated 24 h with varying concentrations; GAPDH loading control

BRD4 degradation (western blot): dose dependent degradation of BRD4
SMILES: Cc1ncsc1-c1ccc(CNC(=O)[C@@H]2C[C@@H](O)CN2C(=O)[C@@H](NC(=O)COCCOCCOCCNC(=O)C[C@@H]2N=C(c3ccc(Cl)cc3)c3c(sc(C)c3C)-n3c(C)nnc32)C(C)(C)C)cc1 [MZ1]

Source: PMC7010361 (ACS chemical biology, 2019)
